Laboratory results reported in ChEMBL document CHEMBL1129312, “Aminodiol HIV protease inhibitors. Synthesis and structure-activity relationships of P1/P1' compounds: correlation between lipophilicity and cytotoxicity” (J Med Chem, 1996).

What was measured:
[1] = system: CEM-SS; assay: Inhibitory activity against HIV-1 virus replication as determined by an XTT endpoint by 50%; format: functional; details: Homo sapiens, read-out: ED50 (the source's name)
[2] = target: Human immunodeficiency virus type 1 protease (Human immunodeficiency virus 1, UniProt Q72874); assay: Inhibitory activity against HIV-1 protease cleavage of [V-S-Q-N-(beta-naphthylalanine)-P-I-V)
[3] = system: H9; assay: Inhibitory activity against human T cell lymphoma (H9) growth by 50 %.; format: functional
[4] = Lipophilicity index (RP-HPLC pH 7); format: physicochemical; details: buffer
[5] = In vitro therapeutic index was evaluated; format: functional
[6] = Plasma elimination half life was determined for the compound; format: ADME, cell-free
[7] = system: CEM-SS; assay: Inhibitory activity against HIV-2 virus replication as determined by an XTT endpoint by 50%; format: functional; details: Homo sapiens, read-out: ED50 (the source's name)

CC(O)COc1ccc(C[C@H](NC(=O)OC(C)(C)C)[C@H](O)CNC[C@@H](O)[C@H](Cc2ccccc2)NC(=O)OC(C)(C)C)cc1 (stereo partly specified)
EC50 [1]: 0.07 µM
IC50 [2]: 0.049 µM
CC50 [3]: 22 µM
Log k' [4]: 1.02

CC(C)(C)OC(=O)N[C@@H](Cc1ccccc1)[C@H](O)CNC[C@@H](O)[C@H](Cc1ccc(OCC(=O)O)cc1)NC(=O)OC(C)(C)C
EC50 [1]: 74 µM
IC50 [2]: 0.15 µM
CC50 [3]: > 100 µM
Log k' [4]: 0.12

CC(C)(C)OC(=O)N[C@@H](Cc1ccccc1)[C@H](O)CNC[C@@H](O)[C@H](Cc1cccc(OCc2ccccc2)c1)NC(=O)OC(C)(C)C
EC50 [1]: 0.09 µM
IC50 [2]: 0.14 µM
CC50 [3]: 1.9 µM
Log k' [4]: 2.04

CN1CCN(CCOc2ccc(C[C@H](NC(=O)OC(C)(C)C)[C@H](O)CNC[C@@H](O)[C@H](Cc3ccccc3)NC(=O)OC(C)(C)C)cc2)C1=O
EC50 [1]: 0.05 µM
IC50 [2]: 0.06 µM
CC50 [3]: 50 µM
Log k' [4]: 1.04

CC(C)(C)OC(=O)N[C@@H](Cc1ccccc1)[C@H](O)CNC[C@@H](O)[C@H](Cc1ccc(OCCCN2CCOCC2=O)cc1)NC(=O)OC(C)(C)C
EC50 [1]: 0.056 µM
IC50 [2]: 0.08 µM
CC50 [3]: 59 µM
Log k' [4]: 0.92

CC(C)(C)OC(=O)N[C@@H](Cc1ccccc1)[C@H](O)CNC[C@@H](O)[C@H](Cc1ccc(OCCN2CCOCC2)cc1)NC(=O)OC(C)(C)C
EC50 [1]: 0.07 µM
IC50 [2]: 0.1 µM
CC50 [3]: 25 µM
Log k' [4]: 1.18

CC(C)(C)OC(=O)N[C@@H](Cc1ccccc1)[C@H](O)CNC[C@@H](O)[C@H](Cc1ccc(OCCCc2nc3ccccc3o2)cc1)NC(=O)OC(C)(C)C
EC50 [1]: 1.5 µM
IC50 [2]: 0.28 µM
CC50 [3]: 5.9 µM
Log k' [4]: 1.98

COCCCCOc1ccc(C[C@H](NC(=O)OC(C)(C)C)[C@H](O)CNC[C@@H](O)[C@H](Cc2ccccc2)NC(=O)OC(C)(C)C)cc1
EC50 [1]: < 0.03 µM
IC50 [2]: 0.05 µM
CC50 [3]: 12 µM
Log k' [4]: 1.6

CC(C)(C)OC(=O)N[C@@H](Cc1ccccc1)[C@H](O)CNC[C@@H](O)[C@H](Cc1ccc(OCCOc2cccnc2)cc1)NC(=O)OC(C)(C)C
EC50 [1]: 0.04 µM
IC50 [2]: 0.06 µM
CC50 [3]: 18 µM
Log k' [4]: 1.25

CC(C)(C)OC(=O)N[C@@H](Cc1ccccc1)[C@H](O)CNC[C@@H](O)[C@H](Cc1cccc(O)c1)NC(=O)OC(C)(C)C
EC50 [1]: 0.15 µM
IC50 [2]: 0.2 µM
CC50 [3]: 17 µM
Log k' [4]: 0.92

CC(C)(C)OC(=O)N[C@@H](Cc1ccccc1)[C@H](O)CNC[C@@H](O)[C@H](Cc1ccc2ncccc2c1)NC(=O)OC(C)(C)C
EC50 [1]: 0.03 µM
IC50 [2]: 0.13 µM
CC50 [3]: 15 µM

CC(C)(C)OC(=O)N[C@@H](Cc1ccccc1)[C@H](O)CNC[C@@H](O)[C@H](Cc1ccc(OCCO)cc1)NC(=O)OC(C)(C)C
EC50 [1]: 0.06 µM
IC50 [2]: 0.064 µM
CC50 [3]: 56 µM
Log k' [4]: 0.82

CC(C)(C)OC(=O)N[C@@H](Cc1ccccc1)[C@H](O)CNC[C@@H](O)[C@H](Cc1ccc(OCC(=O)N2CCCCC2)cc1)NC(=O)OC(C)(C)C
EC50 [1]: 0.07 µM
IC50 [2]: 0.09 µM
CC50 [3]: 17 µM
Log k' [4]: 1.33

CC(C)(O)COc1ccc(C[C@H](NC(=O)OC(C)(C)C)[C@H](O)CNC[C@@H](O)[C@H](Cc2ccccc2)NC(=O)OC(C)(C)C)cc1
EC50 [1]: 0.09 µM
IC50 [2]: 0.12 µM
CC50 [3]: 49 µM
Log k' [4]: 1.22

CN(C)C(=O)OCCOc1ccc(C[C@H](NC(=O)OC(C)(C)C)[C@H](O)CNC[C@@H](O)[C@H](Cc2ccccc2)NC(=O)OC(C)(C)C)cc1
EC50 [1]: 0.12 µM
IC50 [2]: 0.04 µM
CC50 [3]: 16 µM
Log k' [4]: 1.24

CC(C)(C)OC(=O)N[C@@H](Cc1ccccc1)[C@H](O)CNC[C@@H](O)[C@H](Cc1ccncc1)NC(=O)OC(C)(C)C
EC50 [1]: 0.54 µM
IC50 [2]: 0.4 µM
CC50 [3]: 67 µM
Log k' [4]: 0.8

CC(C)(C)OC(=O)N[C@@H](Cc1ccccc1)[C@H](O)CNC[C@@H](O)[C@H](Cc1ccc(OCCc2ccccn2)cc1)NC(=O)OC(C)(C)C
EC50 [1]: 0.04 µM
IC50 [2]: 0.05 µM
CC50 [3]: 5 µM
Log k' [4]: 1.39

CC(C)(C)OC(=O)N[C@@H](Cc1ccccc1)[C@H](O)CNC[C@@H](O)[C@H](Cc1ccccc1O)NC(=O)OC(C)(C)C
EC50 [1]: 1.2 µM
IC50 [2]: 0.3 µM
CC50 [3]: 17 µM
Log k' [4]: 1.16

COCCOc1ccc(C[C@H](NC(=O)OC(C)(C)C)[C@H](O)CNC[C@@H](O)[C@H](Cc2ccccc2)NC(=O)OC(C)(C)C)cc1
EC50 [1]: 0.07 µM
IC50 [2]: 0.072 µM
CC50 [3]: 20 µM
Log k' [4]: 1.19

CC(C)(C)OC(=O)N[C@@H](Cc1ccccc1)[C@H](O)CNC[C@@H](O)[C@H](Cc1ccc(OCCn2ccnc2)cc1)NC(=O)OC(C)(C)C
EC50 [1]: 0.05 µM
IC50 [2]: 0.09 µM
CC50 [3]: 22 µM
Log k' [4]: 0.96

CC(C)(C)OC(=O)N[C@@H](Cc1ccccc1)[C@H](O)CNC[C@@H](O)[C@H](Cc1ccc(OCc2nc3ccccc3o2)cc1)NC(=O)OC(C)(C)C
EC50 [1]: 0.11 µM
IC50 [2]: 0.32 µM
CC50 [3]: 1.9 µM
Log k' [4]: 1.69

CC(C)(C)OC(=O)N[C@@H](Cc1ccccc1)[C@H](O)CNC[C@@H](O)[C@H](Cc1ccc(OCC(=O)N2CCOCC2)cc1)NC(=O)OC(C)(C)C
EC50 [1]: 0.1 µM
IC50 [2]: 0.1 µM
CC50 [3]: > 100 µM
Log k' [4]: 0.87

CC(C)(C)OC(=O)N[C@@H](Cc1ccccc1)[C@H](O)CNC[C@@H](O)[C@H](Cc1ccc(O)cc1)NC(=O)OC(C)(C)C
EC50 [1]: 0.09 µM
IC50 [2]: 0.1 µM
CC50 [3]: 32 µM
Log k' [4]: 0.79

CC(C)(C)OC(=O)N[C@@H](Cc1ccccc1)[C@H](O)CNC[C@@H](O)[C@H](Cc1ccc(OCC(O)c2ccccn2)cc1)NC(=O)OC(C)(C)C (stereo partly specified)
EC50 [1]: 0.2 µM
IC50 [2]: 0.11 µM
CC50 [3]: 58 µM
Log k' [4]: 0.81

CC(C)(C)OC(=O)N[C@@H](Cc1ccccc1)[C@H](O)CNC[C@@H](O)[C@H](Cc1ccc(CCC(=O)N2CCOCC2)cc1)NC(=O)OC(C)(C)C
EC50 [1]: 0.21 µM
IC50 [2]: 0.085 µM
CC50 [3]: 58 µM
Log k' [4]: 1.03

CC(C)(C)OC(=O)N[C@@H](Cc1ccccc1)[C@H](O)CNC[C@@H](O)[C@H](Cc1ccc(OCCCN2CCOCC2)cc1)NC(=O)OC(C)(C)C
EC50 [1]: 0.04 µM
IC50 [2]: 0.086 µM
CC50 [3]: 17 µM
Log k' [4]: 1.28

CC(C)(C)OC(=O)N[C@@H](Cc1ccccc1)[C@H](O)CNC[C@@H](O)[C@H](Cc1ccc(OCc2ccccc2)cc1)NC(=O)OC(C)(C)C
EC50 [1]: 0.17 µM
IC50 [2]: 0.3 µM
CC50 [3]: 1.8 µM
Log k' [4]: 2

CC(C)(C)OC(=O)N[C@@H](Cc1ccccc1)[C@H](O)CNC[C@@H](O)[C@H](Cc1ccc(COC(=O)N2CCOCC2)cc1)NC(=O)OC(C)(C)C
EC50 [1]: 0.04 µM
IC50 [2]: 0.03 µM
CC50 [3]: 27 µM
Log k' [4]: 1.23

CC(C)(C)OC(=O)N[C@@H](Cc1ccccc1)[C@H](O)CNC[C@@H](O)[C@H](Cc1ccccc1)NC(=O)OC(C)(C)C
EC50 [1]: 0.08 µM
CC50 [3]: 8.5 µM
Log k' [4]: 1.39
Therapeutic index [5]: 100
half-life [6]: 4 h
EC50 [7]: 0.12 µM

CC(C)(C)OC(=O)N[C@@H](Cc1ccccc1)[C@H](O)CNC[C@@H](O)[C@H](Cc1ccc(OCCN2CCOC2=O)cc1)NC(=O)OC(C)(C)C
EC50 [1]: 0.08 µM
IC50 [2]: 0.04 µM
CC50 [3]: 52 µM
Log k' [4]: 0.82
